{"source": "patent US10676477B2", "about": "“Factor XIa macrocycle inhibitors bearing a non-aromatic P2' group” (BRISTOL-MYERS SQUIBB COMPANY, priority 2015, dated 2020)", "key": {"[1]": {"molecular_target": "T1, human plasma kallikrein (Homo sapiens, UniProt P03952)", "T1 construct": "purchased Enzyme Research Laboratories", "T1 sequence (P03952 391-638 limits assumed)": "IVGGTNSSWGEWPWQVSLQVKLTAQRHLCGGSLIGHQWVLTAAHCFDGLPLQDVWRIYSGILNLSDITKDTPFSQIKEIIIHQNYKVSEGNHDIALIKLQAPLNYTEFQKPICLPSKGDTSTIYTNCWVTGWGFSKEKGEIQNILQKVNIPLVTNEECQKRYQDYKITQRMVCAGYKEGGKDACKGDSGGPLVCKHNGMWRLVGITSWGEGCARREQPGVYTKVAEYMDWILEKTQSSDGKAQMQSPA", "T1 sequence (P03952 20-390 partner limits assumed)": "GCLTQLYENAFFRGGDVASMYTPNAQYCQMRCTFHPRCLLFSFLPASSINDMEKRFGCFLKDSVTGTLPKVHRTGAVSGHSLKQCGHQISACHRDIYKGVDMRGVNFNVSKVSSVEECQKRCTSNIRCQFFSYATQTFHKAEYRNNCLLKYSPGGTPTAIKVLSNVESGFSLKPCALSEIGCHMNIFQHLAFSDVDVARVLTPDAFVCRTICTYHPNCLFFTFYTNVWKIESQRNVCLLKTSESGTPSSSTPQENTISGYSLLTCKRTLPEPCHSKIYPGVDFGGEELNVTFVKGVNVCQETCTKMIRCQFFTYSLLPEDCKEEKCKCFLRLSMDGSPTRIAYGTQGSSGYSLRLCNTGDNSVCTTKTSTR", "experiment": "Plasma kallikrein enzyme inhibition assay (chromogenic substrate S-2302), Ki", "assay_type": "biochemical", "conditions": "purified human plasma kallikrein, substrate S-2302, pH 7.5", "protocol": "(§1) The effectiveness of compounds of the present invention as inhibitors of the coagulation Factors XIa, VIIa, IXa, Xa, XIIa, plasma kallikrein chymotrypsin, trypsin, or thrombin, can be determined using a relevant purified serine protease, respectively, and an appropriate synthetic substrate. The rate of hydrolysis of the chromogenic or fluorogenic substrate by the relevant serine protease was measured both in the absence and presence of compounds of the present invention. […] A decrease in the rate of absorbance or fluorescence change in the presence of inhibitor is indicative of enzyme inhibition. Such methods are known to one skilled in the art. The results of this assay are expressed as the inhibitory constant, Ki.\nPlasma kallikrein determinations were made in 0.1 M sodium phosphate buffer at a pH of 7.5 containing 0.1-0.2 M sodium chloride and 0.5% PEG 8000. Determinations were made using purified human plasma kallikrein (Enzyme Research Laboratories) at a final assay concentration of 200 pM and the synthetic substrate S-2302 (H-(D)-Pro-Phe-Arg-pNA; CHROMOGENIX®) at a concentration of 0.00008-0.0004 M.\n(§2) The Michaelis constant, Km, for substrate hydrolysis by each protease, was determined at 25° C. or 37° C. in the absence of inhibitor. Values of Ki were determined by allowing the protease to react with the substrate in the presence of the inhibitor. Reactions were allowed to go for periods of 20-180 minutes (depending on the protease) and the velocities (rate of absorbance or fluorescence change versus time) were measured. The following relationships were used to calculate Ki values: (Vmax*S)/(Km+S) (vo−vs)/vs=I/(Ki*(1+S/Km)) for a competitive inhibitor with one binding site; or vs/vo=A+((B−A)/(1+(IC50/(I)^n)); and Ki=IC50/(1+S/Km) for a competitive inhibitor where: […]"}, "[2]": {"molecular_target": "T2, human Factor XIa (Homo sapiens, UniProt P03951)", "T2 construct": "purchased Haematologic Technologies", "T2 sequence (P03951 388-625 limits assumed)": "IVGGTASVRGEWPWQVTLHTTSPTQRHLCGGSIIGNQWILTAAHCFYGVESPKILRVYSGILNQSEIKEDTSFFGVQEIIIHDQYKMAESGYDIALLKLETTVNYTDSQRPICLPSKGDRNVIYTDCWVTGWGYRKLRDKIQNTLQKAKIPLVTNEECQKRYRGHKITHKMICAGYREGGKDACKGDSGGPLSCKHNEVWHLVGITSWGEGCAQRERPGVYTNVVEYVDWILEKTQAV", "T2 sequence (P03951 19-387 partner limits assumed)": "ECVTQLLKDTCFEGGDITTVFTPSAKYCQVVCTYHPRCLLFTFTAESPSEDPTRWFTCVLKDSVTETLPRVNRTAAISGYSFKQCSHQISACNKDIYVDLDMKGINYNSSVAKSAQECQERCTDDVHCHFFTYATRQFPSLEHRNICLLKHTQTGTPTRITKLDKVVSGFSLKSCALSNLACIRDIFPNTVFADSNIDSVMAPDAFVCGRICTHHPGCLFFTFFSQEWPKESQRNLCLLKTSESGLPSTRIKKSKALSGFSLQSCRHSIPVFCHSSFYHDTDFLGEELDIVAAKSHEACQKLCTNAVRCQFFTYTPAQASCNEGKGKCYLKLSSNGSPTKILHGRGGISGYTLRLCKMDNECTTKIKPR", "experiment": "Factor XIa enzyme inhibition assay (chromogenic substrate S-2366), Ki", "assay_type": "biochemical", "conditions": "purified human Factor XIa, substrate S-2366, pH 7.4", "protocol": "as §1\nFactor XIa determinations were made in 50 mM HEPES buffer at pH 7.4 containing 145 mM NaCl, 5 mM KCl, and 0.1% PEG 8000 (polyethylene glycol; JT Baker or Fisher Scientific). Determinations were made using purified human Factor XIa at a final concentration of 25-200 pM (Haematologic Technologies) and the synthetic substrate S-2366 (pyroGlu-Pro-Arg-pNA; CHROMOGENIX® or AnaSpec) at a concentration of 0.0002-0.001 M.\nas §2"}}, "note": "Counter-ions that a name gives are not always drawn."}
{"smiles": "O=C1NCCCCC[C@H](n2cnc(-c3cc(Cl)ccc3-n3cc(Cl)nn3)cc2=O)c2cccc(c2)N2C(=O)CNC[C@H]12", "note": "[Example 7, (7R,15S)-15-{4-[5-chloro-2-(4-chloro-1H-1,2,3-triazol-1-yl)phenyl]-6-oxo-1,6-dihydropyrimidin-1-yl}-2,5,9-triazatricyclo[14.3.1.0^2,7]icosa-1(20),16,18-triene-3,8-dione hydrochloride]", "values": [{"measurement": "Ki", "setting": "[1]", "result": 4780, "unit": "nM"}, {"measurement": "Ki", "setting": "[2]", "result": 97, "unit": "nM"}]}
{"smiles": "O=C(NC[C@H]1Nc2cccc(c2)[C@@H](n2cnc(-c3cc(Cl)ccc3-n3cc(Cl)nn3)cc2=O)CCCCCNC1=O)c1cccnc1", "note": "[Example 24, N-{[(3R,11S)-11-{4-[5-chloro-2-(4-chloro-1H-1,2,3-triazol-1-yl)phenyl]-6-oxo-1,6-dihydropyrimidin-1-yl}-4-oxo-2,5-diazabicyclo[10.3.1]hexadeca-1(16),12,14-trien-3-yl]methyl}pyridine-3-carboxamide trifluoromethylacetate]", "values": [{"measurement": "Ki", "setting": "[1]", "result": 5200, "unit": "nM"}, {"measurement": "Ki", "setting": "[2]", "result": 62, "unit": "nM"}]}
{"smiles": "O=C1NCCCCC[C@H](n2cnc(-c3c(-n4cc(Cl)nn4)ccc(Cl)c3F)cc2=O)c2cccc(c2)N2C(=O)CC[C@@H]12", "note": "[Example 35, (6S,14S)-14-{4-[3-chloro-6-(4-chloro-1H-1,2,3-triazol-1-yl)-2-fluorophenyl]-6-oxo-1,6-dihydropyrimidin-1-yl}-2,8-diazatricyclo[13.3.1.0^2,6]nonadeca-1(19),15,17-triene-3,7-dione]", "values": [{"measurement": "Ki", "setting": "[1]", "result": 11100, "unit": "nM"}, {"measurement": "Ki", "setting": "[2]", "result": 5170, "unit": "nM"}]}
{"smiles": "CC(C)(C)OC(=O)N1CC(=O)N2c3cccc(c3)[C@@H](n3cnc(-c4cc(Cl)ccc4-n4cc(Cl)nn4)cc3=O)CCCCCNC(=O)[C@H]2C1", "note": "[Example 5, tert-butyl (7R,15S)-15-{4-[5-chloro-2-(4-chloro-1H-1,2,3-triazol-1-yl)phenyl]-6-oxo-1,6-dihydropyrimidin-1-yl}-3,8-dioxo-2,5,9-triazatricyclo[14.3.1.0^2,7]icosa-1(20),16,18-triene-5-carboxylate]", "values": [{"measurement": "Ki", "setting": "[1]", "result": 6000, "unit": "nM"}, {"measurement": "Ki", "setting": "[2]", "result": 276, "unit": "nM"}]}
{"smiles": "COC(=O)N1CCN2c3cccc(c3)[C@@H](n3cnc(-c4cc(Cl)ccc4-n4cc(Cl)nn4)cc3=O)CCCCCNC(=O)[C@H]2C1", "note": "[Example 10, methyl (7R,15S)-15-{4-[5-chloro-2-(4-chloro-1H-1,2,3-triazol-1-yl)phenyl]-6-oxo-1,6-dihydropyrimidin-1-yl}-8-oxo-2,5,9-triazatricyclo[14.3.1.0^2,7]icosa-1(20),16,18-triene-5-carboxylate]", "values": [{"measurement": "Ki", "setting": "[1]", "result": 862, "unit": "nM"}, {"measurement": "Ki", "setting": "[2]", "result": 5, "unit": "nM"}]}
{"smiles": "O=C1NCCCCC[C@H](n2cnc(-c3cc(Cl)ccc3-n3cc(Cl)nn3)cc2=O)c2cccc(c2)N2C(=O)CNC[C@@H]12", "note": "[Example 6, (7S,15S)-15-{4-[5-chloro-2-(4-chloro-1H-1,2,3-triazol-1-yl)phenyl]-6-oxo-1,6-dihydropyrimidin-1-yl}-2,5,9-triazatricyclo[14.3.1.0^2,7]icosa-1(20),16,18-triene-3,8-dione hydrochloride]", "values": [{"measurement": "Ki", "setting": "[1]", "result": 13000, "unit": "nM"}, {"measurement": "Ki", "setting": "[2]", "result": 6000, "unit": "nM"}]}
{"smiles": "CC(=O)N1CCN2c3cccc(c3)[C@@H](n3cnc(-c4cc(Cl)ccc4-n4cc(Cl)nn4)cc3=O)CCCCCNC(=O)[C@H]2C1", "note": "[Example 12, (7R,15S)-5-acetyl-15-{4-[5-chloro-2-(4-chloro-1H-1,2,3-triazol-1-yl)phenyl]-6-oxo-1,6-dihydropyrimidin-1-yl}-2,5,9-triazatricyclo[14.3.1.0^2,7]icosa-1(20),16,18-trien-8-one]", "values": [{"measurement": "Ki", "setting": "[1]", "result": 1050, "unit": "nM"}, {"measurement": "Ki", "setting": "[2]", "result": 6, "unit": "nM"}]}
{"smiles": "COC(=O)NCC[C@@H]1Nc2cccc(c2)[C@@H](n2cnc(-c3cc(Cl)ccc3-n3cc(Cl)nn3)cc2=O)CCCCCNC1=O", "note": "[Example 30, methyl N-{2-[(3S,11S)-11-{4-[5-chloro-2-(4-chloro-1H-1,2,3-triazol-1-yl)phenyl]-6-oxo-1,6-dihydropyrimidin-1-yl}-4-oxo-2,5-diazabicyclo[10.3.1]hexadeca-1(16),12,14-trien-3-yl]ethyl}carbamate trifluoromethyl acetate]", "values": [{"measurement": "Ki", "setting": "[1]", "result": 5680, "unit": "nM"}, {"measurement": "Ki", "setting": "[2]", "result": 515, "unit": "nM"}]}
{"smiles": "CC(C)(C)OC(=O)N1CCN2c3cccc(c3)[C@@H](n3cnc(-c4cc(Cl)ccc4-n4cc(Cl)nn4)cc3=O)CCCCCNC(=O)[C@H]2C1", "note": "[Example 8, tert-butyl (7R,15S)-15-{4-[5-chloro-2-(4-chloro-1H-1,2,3-triazol-1-yl)phenyl]-6-oxo-1,6-dihydropyrimidin-1-yl}-8-oxo-2,5,9-triazatricyclo[14.3.1.0^2,7]icosa-1(20),16,18-triene-5-carboxylate]", "values": [{"measurement": "Ki", "setting": "[1]", "result": 1090, "unit": "nM"}, {"measurement": "Ki", "setting": "[2]", "result": 21, "unit": "nM"}]}
{"smiles": "O=C1NCCCCC[C@H](n2cnc(-c3c(-n4cc(Cl)nn4)ccc(Cl)c3F)cc2=O)c2cccc(c2)N2C(=O)CC[C@H]12", "note": "[Example 34, (6R,14S)-14-{4-[3-chloro-6-(4-chloro-1H-1,2,3-triazol-1-yl)-2-fluorophenyl]-6-oxo-1,6-dihydropyrimidin-1-yl}-2,8-diazatricyclo[13.3.1.0^2,6]nonadeca-1(19),15,17-triene-3,7-dione]", "values": [{"measurement": "Ki", "setting": "[1]", "result": 134, "unit": "nM"}, {"measurement": "Ki", "setting": "[2]", "result": 6, "unit": "nM"}]}
{"smiles": "CC(C)(C)OC(=O)N1CCN2c3cccc(c3)[C@@H](n3cnc(-c4cc(Cl)ccc4-n4cc(Cl)nn4)cc3=O)CCCCCNC(=O)[C@@H]2C1", "note": "[Example 1, tert-butyl (7S,15S)-15-{4-[5-chloro-2-(4-chloro-1H-1,2,3-triazol-1-yl)phenyl]-6-oxo-1,6-dihydropyrimidin-1-yl}-8-oxo-2,5,9-triazatricyclo[14.3.1.0^2,7]icosa-1(20),16,18-triene-5-carboxylate]", "values": [{"measurement": "Ki", "setting": "[1]", "result": 3470, "unit": "nM"}, {"measurement": "Ki", "setting": "[2]", "result": 955, "unit": "nM"}]}
{"smiles": "COC(=O)NCC[C@@H]1Nc2cccc(c2)[C@@H](NC(=O)c2cnn(-c3cccc(Cl)c3F)c2Cl)CCCCCNC1=O", "note": "[Example 31, methyl N-{2-[(3S,11S)-11-[5-chloro-1-(3-chloro-2-fluorophenyl)-1H-pyrazole-4-amido]-4-oxo-2,5-diazabicyclo[10.3.1]hexadeca-1(16),12,14-trien-3-yl]ethyl}carbamate, trifluoromethylacetate]", "values": [{"measurement": "Ki", "setting": "[1]", "result": 9490, "unit": "nM"}, {"measurement": "Ki", "setting": "[2]", "result": 1830, "unit": "nM"}]}
{"smiles": "COC(=O)NCC[C@H]1Nc2cccc(c2)[C@@H](n2cnc(-c3cc(Cl)ccc3-n3cc(Cl)nn3)cc2=O)CCCCCNC1=O", "note": "[Example 28, methyl N-{2-[(3R,11S)-11-{4-[5-chloro-2-(4-chloro-1H-1,2,3-triazol-1-yl)phenyl]-6-oxo-1,6-dihydropyrimidin-1-yl}-4-oxo-2,5-diazabicyclo[10.3.1]hexadeca-1(16),12,14-trien-3-yl]ethyl}carbamate trifluoromethyl acetate]", "values": [{"measurement": "Ki", "setting": "[1]", "result": 83, "unit": "nM"}, {"measurement": "Ki", "setting": "[2]", "result": 5, "unit": "nM"}]}
{"smiles": "CCOC(=O)c1cnc(N2CCN3c4cccc(c4)[C@@H](n4cnc(-c5cc(Cl)ccc5-n5cc(Cl)nn5)cc4=O)CCCCCNC(=O)[C@H]3C2)o1", "note": "[Example 17, ethyl 2-[(7R,15S)-15-{4-[5-chloro-2-(4-chloro-1H-1,2,3-triazol-1-yl)phenyl]-6-oxo-1,6-dihydropyrimidin-1-yl}-8-oxo-2,5,9-triazatricyclo[14.3.1.0^2,7]icosa-1(20),16,18-trien-5-yl]-1,3-oxazole-5-carboxylate trifluoromethylacetate]", "values": [{"measurement": "Ki", "setting": "[1]", "result": 1220, "unit": "nM"}, {"measurement": "Ki", "setting": "[2]", "result": 16, "unit": "nM"}]}
{"smiles": "CC(C)(C)OC(=O)NCC[C@H]1Nc2cccc(c2)[C@@H](n2cnc(-c3cc(Cl)ccc3-n3cc(Cl)nn3)cc2=O)CCCCCNC1=O", "note": "[Example 26, tert-butyl N-{2-[(3R,11S)-11-{4-[5-chloro-2-(4-chloro-1H-1,2,3-triazol-1-yl)phenyl]-6-oxo-1,6-dihydropyrimidin-1-yl}-4-oxo-2,5-diazabicyclo[10.3.1]hexadeca-1(16),12,14-trien-3-yl]ethyl}carbamate trifluoromethylacetate]", "values": [{"measurement": "Ki", "setting": "[1]", "result": 430, "unit": "nM"}, {"measurement": "Ki", "setting": "[2]", "result": 24, "unit": "nM"}]}
{"smiles": "O=C1NCCCCC[C@H](n2cnc(-c3cc(Cl)ccc3-n3cc(C(F)(F)F)nn3)cc2=O)c2cccc(c2)N2C(=O)CC[C@H]12", "note": "[Example 33, (6R,14S)-14-(4-{5-chloro-2-[4-(trifluoromethyl)-1H-1,2,3-triazol-1-yl]phenyl}-6-oxo-1,6-dihydropyrimidin-1-yl)-2,8-diazatricyclo[13.3.1.0^2,6]nonadeca-1(19),15,17-triene-3,7-dione]", "values": [{"measurement": "Ki", "setting": "[1]", "result": 319, "unit": "nM"}, {"measurement": "Ki", "setting": "[2]", "result": 12, "unit": "nM"}]}
{"smiles": "CC(C)(C)OC(=O)N1CC(=O)N2c3cccc(c3)[C@@H](n3cnc(-c4cc(Cl)ccc4-n4cc(Cl)nn4)cc3=O)CCCCCNC(=O)[C@@H]2C1", "note": "[Example 4, tert-butyl (7S,15S)-15-{4-[5-chloro-2-(4-chloro-1H-1,2,3-triazol-1-yl)phenyl]-6-oxo-1,6-dihydropyrimidin-1-yl}-3,8-dioxo-2,5,9-triazatricyclo[14.3.1.0^2,7]icosa-1(20),16,18-triene-5-carboxylate]", "values": [{"measurement": "Ki", "setting": "[1]", "result": 3140, "unit": "nM"}, {"measurement": "Ki", "setting": "[2]", "result": 9020, "unit": "nM"}]}
